Reference: patent US12258336B2, “Preparation of seimicarbazide-sensitive amine oxidase inhibitor and use thereof” (SHANGHAI ENNOVABIO PHARMACEUTICALS CO., LTD., priority 2018, dated 2025)

Tested on: ALOX5AP, SOCS3 and TLR7 gene expression in retina
Assay: LPS-induced ocular inflammation model: qPCR of inflammation-related genes in retina
Assay type: in vivo
Settings: rat, 6 mg/kg oral, compared with model group
Description: 22 rats (7-8 weeks, 220-250 g) were divided into 3 groups, which were control group (6), model group (8) and compound treated group (8). For the model group and compound treated group, ocular inflammation was induced by a single injection of 8 μg/100 μL lipopolysaccharide (Sigma-Aldrich-L2880) into the footpad. The rats were grouped according to their body weight 1 h before induction. Example 4 compound (6 mg/kg, 10 mL/kg) or vehicle (10 mL/kg) were orally administered respectively. 24 hours after induction, the anterior aqueous humor was collected and the eyeballs were removed to dissect the retina. Ocular inflammation was quantitatively evaluated by measuring the protein concentration and cell number in the aqueous humor. qPCR method was used to verify changes in the expression of ocular retinal inflammation-related genes.
• 1) Primers were synthesized, with the information shown as follows:
• 2) Retinal RNA was extracted according to operating instructions of RNA extraction kit (RNeasy Mini Kit, Qiagen-74104), and then the RNA was reverse-transcribed into cDNA (High Capacity cDNA Reverse Transcription Kits, ABI-4374966). The obtained cDNA was diluted 10 times to serve as qPCR reaction template. According to instructions of Power SYBR Green kit (ABI-A25918), qPCR reaction was performed on CFX384 Real-Time qPCR equipment. Quantitative analysis of expression changes for each gene expression was performed using CFX Maestro software by ΔΔCt method, with UBC as internal housekeeping gene.

NC/C(=C\F)COc1cnc(N2CCN(C3COC3)CC2)nc1 [Example 4, (E)-3-fluoro-2-(((2-(4-(oxbutan-3-yl)piperazin-1-yl)pyrimidin-5-yl)oxo)methyl)prop-2-en-1-amine]
significantly reduce: expression level of ALOX5AP gene in retina | expression level of SOCS3 gene in retina | expression level of TLR7 gene in retina
